Reference: patent US20230117034A1, “PYRAZOLOTRIAZINES” (Bayer Aktiengesellschaft, priority 2019, published 2023)

Experiments:
[1] = target: T1, CDK12 (nuclear staining in CAL-120 cells) (Homo sapiens, UniProt Q9NYV4); assay: CDK12 nuclear protein level: immunofluorescence/high content analysis (CAL-120); format: cell-based; settings: for DC50: CAL-120 cells, 24 h, immunofluorescence, 50% reduction of nuclear CDK12 staining intensity, median, read-out: CDK12 degradation IF, DC50- [mol/l] (median); for (IC50 CDK12 high ATP) to (Degradation DC50 CDK12) ratio: ratio of IC50 CDK12 high ATP kinase assay to DC50 CDK12 degradation (IF, CAL-120)
T1 construct: endogenous in cells; host or cells: CAL-120 human breast cancer cells (DSMZ ACC 459)
T1 sequence (Q9NYV4 whole entry): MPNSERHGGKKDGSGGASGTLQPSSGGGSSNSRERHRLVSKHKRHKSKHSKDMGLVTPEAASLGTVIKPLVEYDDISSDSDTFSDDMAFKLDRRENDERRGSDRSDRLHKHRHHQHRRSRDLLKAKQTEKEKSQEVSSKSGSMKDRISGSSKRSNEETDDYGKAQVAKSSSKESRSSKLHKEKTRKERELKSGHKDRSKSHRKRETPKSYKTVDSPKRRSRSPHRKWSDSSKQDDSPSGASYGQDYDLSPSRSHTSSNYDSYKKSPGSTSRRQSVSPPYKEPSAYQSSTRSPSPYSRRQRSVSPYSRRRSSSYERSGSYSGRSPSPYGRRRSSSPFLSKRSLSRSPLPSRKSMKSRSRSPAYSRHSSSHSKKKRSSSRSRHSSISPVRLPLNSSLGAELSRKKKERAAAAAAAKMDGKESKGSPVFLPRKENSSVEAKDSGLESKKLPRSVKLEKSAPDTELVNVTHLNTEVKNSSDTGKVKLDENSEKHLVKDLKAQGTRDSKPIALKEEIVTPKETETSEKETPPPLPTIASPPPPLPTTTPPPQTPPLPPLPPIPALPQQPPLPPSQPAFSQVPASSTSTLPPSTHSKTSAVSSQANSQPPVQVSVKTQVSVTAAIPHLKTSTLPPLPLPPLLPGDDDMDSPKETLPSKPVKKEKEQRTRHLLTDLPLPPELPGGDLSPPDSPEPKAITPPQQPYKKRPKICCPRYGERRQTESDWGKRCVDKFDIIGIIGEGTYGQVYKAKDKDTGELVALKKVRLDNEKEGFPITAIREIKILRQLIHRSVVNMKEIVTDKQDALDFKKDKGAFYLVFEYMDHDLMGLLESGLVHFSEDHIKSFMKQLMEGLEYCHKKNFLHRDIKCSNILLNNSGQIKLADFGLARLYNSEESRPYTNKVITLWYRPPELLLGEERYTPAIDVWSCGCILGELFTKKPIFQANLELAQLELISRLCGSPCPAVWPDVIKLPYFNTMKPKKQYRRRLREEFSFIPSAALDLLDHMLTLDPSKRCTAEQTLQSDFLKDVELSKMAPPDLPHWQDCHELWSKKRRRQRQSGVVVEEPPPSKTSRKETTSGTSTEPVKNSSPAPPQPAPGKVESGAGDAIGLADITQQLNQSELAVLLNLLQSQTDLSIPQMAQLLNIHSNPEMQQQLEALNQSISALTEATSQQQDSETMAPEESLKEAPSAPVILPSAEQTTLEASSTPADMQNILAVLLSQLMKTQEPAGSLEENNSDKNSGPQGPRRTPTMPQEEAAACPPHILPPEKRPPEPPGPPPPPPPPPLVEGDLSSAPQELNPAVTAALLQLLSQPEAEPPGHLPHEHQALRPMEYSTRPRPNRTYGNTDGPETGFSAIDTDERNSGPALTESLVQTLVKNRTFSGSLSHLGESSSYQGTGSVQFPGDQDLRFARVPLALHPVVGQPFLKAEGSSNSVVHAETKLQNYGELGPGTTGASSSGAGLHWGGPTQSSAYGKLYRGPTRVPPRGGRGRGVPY
T1 sequence (O75909 whole entry partner): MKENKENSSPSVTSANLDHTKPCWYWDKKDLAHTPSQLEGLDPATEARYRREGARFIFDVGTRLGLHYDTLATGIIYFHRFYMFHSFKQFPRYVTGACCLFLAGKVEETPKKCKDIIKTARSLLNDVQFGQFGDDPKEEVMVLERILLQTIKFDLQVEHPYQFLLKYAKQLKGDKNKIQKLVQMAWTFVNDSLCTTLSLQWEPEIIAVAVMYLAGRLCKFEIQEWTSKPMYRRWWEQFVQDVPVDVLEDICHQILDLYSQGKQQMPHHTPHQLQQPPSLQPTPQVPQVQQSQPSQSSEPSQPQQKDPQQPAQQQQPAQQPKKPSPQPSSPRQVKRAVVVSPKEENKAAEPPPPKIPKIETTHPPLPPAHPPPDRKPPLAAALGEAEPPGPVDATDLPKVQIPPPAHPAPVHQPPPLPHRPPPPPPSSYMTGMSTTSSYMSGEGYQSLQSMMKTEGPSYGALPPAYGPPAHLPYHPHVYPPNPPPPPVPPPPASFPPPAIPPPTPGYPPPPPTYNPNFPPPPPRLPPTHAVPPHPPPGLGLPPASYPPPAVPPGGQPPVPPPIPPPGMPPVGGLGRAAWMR
Protocol: In the context of the present invention, the term “DC50 CDK12” refers to the DC50 values obtained according to the assay described in this section (7) herein below, i.e. the DC50 values for the degradation of CDK12.
Plates are then incubated for 24 h at 37° C. in an humidified incubator and fixed with 4% PFA for 10 min. […] Nuclear and cytoplasmic intensity as well as the nuclear/cytoplasmic intensity ratio is determined by automated image analysis using custom generated scripts (MetaXpress). Data is then transferred to Genedata Screener software, normalized to DMSO and control and DC50 values (degrading concentration to achieve 50% reduction of nuclear CDK12 staining intensity relative to controls) are reported.

[2] = test system: MDA-MB-231, human breast cancer cells; assay: Proliferation assay MDA-MB-231 (crystal violet, 4 days); format: cell-based; settings: Homo sapiens, MDA-MB-231, 96 h, MDA-MB-231 cells, median, read-out: Prolif-MDA MB-231, IC50-[mol/l] (median)
Protocol: Human tumour cells were originally obtained from the American Type Culture Collection (ATCC), or from the Deutsche Sammlung von Mikroorganismen und Zellkulturen (DSMZ, German Collection of Microorganisms and Cell Cultures). Cultivated tumour cells (CAL-120, human breast adenocarcinoma cells, DSMZ ACC-459; MDA-MB-231, human breast cancer cells, ATCC HTB-26) were plated at a density of 4,000 cells/well in a 96-well multititer plate in 200 microL of their respective growth medium supplemented 10% fetal calf serum. After 24 hours, the cells of one plate (zero-point plate) were stained with crystal violet (see below), while the medium of the other plates was supplemented with the test substances in various concentrations (0 micromol/L, as well as in the range of 0.01-10 micromol/L; the final concentration of the solvent dimethyl sulfoxide was adjusted to 0.1%) using a Tecan HP D300 Digital Dispenser. The cells were incubated for 4 days in the presence of test substances. Cell proliferation was determined by staining the cells with crystal violet: the cells were fixed by adding 20 microL/measuring point of an 11% glutaric aldehyde solution for 15 minutes at room temperature. After three washing cycles of the fixed cells with water, the plates were dried at room temperature. The cells were stained by adding 100 microL/measuring point of a 0.1% crystal violet solution (pH 3.0). After three washing cycles of the stained cells with water, the plates were dried at room temperature. The dye was dissolved by adding 100 microL/measuring point of a 10% acetic acid solution. The extinction was determined by photometry at a wavelength of 595 nm. The change of cell number, in percent, was calculated by normalization of the measured values to the extinction values of the zero-point plate (=0%) and the extinction of the untreated (0 μM) cells (=100%). The IC50 values (inhibitory concentration at 50% of maximal effect) were determined by means of a 4 parameter fit.

[3] = target: T2, CDK9/CycT1 (Homo sapiens, UniProt P50750); assay: CDK9/CycT1 high ATP kinase assay (TR-FRET, 2 mM ATP); format: biochemical; settings: 2 mM ATP (high ATP); median; read-out: CDK9/CyclinT1, 2 mM ATP (high ATP), IC50 (median)
T2 construct: Recombinant full-length His-tagged human CDK9 and CycT1; purchased Life Technologies PV4131; host or cells: insect cells
T2 sequence (P50750 whole entry): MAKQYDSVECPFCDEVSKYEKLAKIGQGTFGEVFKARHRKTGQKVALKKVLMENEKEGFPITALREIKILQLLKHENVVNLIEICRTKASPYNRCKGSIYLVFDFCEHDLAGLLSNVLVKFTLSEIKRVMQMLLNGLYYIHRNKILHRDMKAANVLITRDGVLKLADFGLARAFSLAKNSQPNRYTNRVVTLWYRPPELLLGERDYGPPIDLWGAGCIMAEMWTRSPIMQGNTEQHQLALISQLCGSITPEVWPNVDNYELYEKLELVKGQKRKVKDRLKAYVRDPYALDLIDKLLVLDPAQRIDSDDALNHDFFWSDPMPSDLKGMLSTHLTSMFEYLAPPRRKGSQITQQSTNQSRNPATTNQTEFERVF
T2 sequence (O60563 whole entry partner): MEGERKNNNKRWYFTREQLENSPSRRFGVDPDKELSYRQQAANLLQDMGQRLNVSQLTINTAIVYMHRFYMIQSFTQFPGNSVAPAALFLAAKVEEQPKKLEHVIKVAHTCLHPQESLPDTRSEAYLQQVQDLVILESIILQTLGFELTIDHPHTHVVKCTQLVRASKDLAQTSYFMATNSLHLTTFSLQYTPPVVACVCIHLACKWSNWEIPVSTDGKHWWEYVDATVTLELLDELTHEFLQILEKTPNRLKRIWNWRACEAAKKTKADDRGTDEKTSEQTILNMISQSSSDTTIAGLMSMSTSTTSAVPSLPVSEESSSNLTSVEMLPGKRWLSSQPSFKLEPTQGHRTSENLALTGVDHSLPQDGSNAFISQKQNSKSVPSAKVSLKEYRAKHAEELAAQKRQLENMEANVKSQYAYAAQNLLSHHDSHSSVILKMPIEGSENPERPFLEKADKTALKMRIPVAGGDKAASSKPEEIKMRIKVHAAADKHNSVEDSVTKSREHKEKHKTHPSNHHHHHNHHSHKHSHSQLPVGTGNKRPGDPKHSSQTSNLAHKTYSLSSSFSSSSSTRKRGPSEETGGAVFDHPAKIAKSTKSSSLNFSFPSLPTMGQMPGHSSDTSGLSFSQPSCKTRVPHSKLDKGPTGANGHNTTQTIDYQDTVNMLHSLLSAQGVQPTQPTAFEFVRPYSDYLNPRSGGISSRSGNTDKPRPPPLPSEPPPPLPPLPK
Protocol: CDK9/CycT1-inhibitory activity of compounds of the present invention at a high ATP concentration after preincubation of enzyme and test compounds was quantified employing the CDK9/CycT1 TR-FRET assay as described in the following paragraphs.
Recombinant full-length His-tagged human CDK9 and CycT1, expressed in insect cells and purified by Ni-NTA affinity chromatography, were purchased from Life Technologies (Cat. No PV4131). As substrate for the kinase reaction biotinylated peptide biotin-Ttds-[…] (C-terminus in amide form) was used which can be purchased e.g. form the company JERINI peptide technologies (Berlin, Germany).
For the assay 50 nanoL of a 100 fold concentrated solution of the test compound in DMSO was pipetted into either a black low volume 384 well microtiter plate or a black 1536 well microtiter plate (both Greiner Bio-One, Frickenhausen, Germany), 2 microL of a solution of CDK9/CycT1 in aqueous assay buffer [50 millimol/L Tris/HCl pH 8.0, 10 millimol/L MgCl2, 1.0 millimol/L dithiothreitol, 0.1 millimol/L sodium ortho-vanadate, 0.01% (v/v) Nonidet-P40 (Sigma)] were added and the mixture was incubated for 15 min at 22° C. to allow pre-binding of the test compounds to the enzyme before the start of the kinase reaction. […] The concentration of CDK9/CycT1 was adjusted depending of the activity of the enzyme lot and was chosen appropriate to have the assay in the linear range, typical concentrations were in the range of 0.5 microg/ml.
The resulting mixture was incubated 1 h at 22° C. to allow the formation of complex between the phosphorylated biotinylated peptide and the detection reagents. Subsequently the amount of phosphorylated substrate was evaluated by measurement of the resonance energy transfer from the Eu-chelate to the streptavidine-XL. Therefore, the fluorescence emissions at 620 nm and 665 nm after excitation at 350 nm was measured in a TR-FRET reader, e.g. a Pherastar (BMG Labtechnologies, Offenburg, Germany) or a Viewlux (Perkin-Elmer). The ratio of the emissions at 665 nm and at […] was taken as the measure for the amount of phosphorylated substrate.

Structure (SMILES) | DC50 [1] | (IC50 CDK12 high ATP) to (Degradation DC50 CDK12) ratio [1] | IC50 [2] | IC50 [3]
CC(C)c1cnn2c(NCc3nc4ccccc4[nH]3)nc(N3CC4(COC4)C3)nc12 [Example 9, N-[(1H-benzimidazol-2-yl)methyl]-2-(2-oxa-6-azaspiro[3.3]heptan-6-yl)-8-(propan-2-yl)pyrazolo[1,5-a][1,3,5]triazin-4-amine] | 80.9 nM | >247 | 1180 nM | > 20000 nM
CC(C)c1cnn2c(NCc3nc4ccccc4[nH]3)nc(NCC(C)(C)O)nc12 [Example 10, 1-{[4-{[(1H-benzimidazol-2-yl)methyl]amino}-8-(propan-2-yl)pyrazolo[1,5-a][1,3,5]triazin-2-yl]amino}-2-methylpropan-2-ol] | 6.85 nM | 1277 | 79.9 nM | > 20000 nM
NCCc1cccc2[nH]c(CNc3nc(N4CCOCC4)nc4c(Br)cnn34)nc12 [Example 112, N-{[7-(2-aminoethyl)-1H-benzimidazol-2-yl]methyl}-8-bromo-2-(morpholin-4-yl)pyrazolo[1,5-a][1,3,5]triazin-4-amine] | 50 nM | 134 | 186 nM | > 20000 nM
C[C@@H]1CN(c2nc(NCc3nnc(-c4ccccc4)[nH]3)n3ncc(Br)c3n2)C[C@H](C)N1 [Example 127, 8-bromo-2-[(3R,5S)-3,5-dimethylpiperazin-1-yl]-N-[(5-phenyl-4H-1,2,4-triazol-3-yl)methyl]pyrazolo[1,5-a][1,3,5]triazin-4-amine] | 5.1 nM | 1905 | 32.5 nM | 6320 nM
C[C@@H]1CN(c2nc(NCc3nc4ccccc4[nH]3)n3ncc(Br)c3n2)C[C@H](C)N1C [Example 129, N-(1H-benzimidazol-2-ylmethyl)-8-bromo-2-[(3R,5S)-3,4,5-trimethylpiperazin-1-yl]pyrazolo[1,5-a][1,3,5]triazin-4-amine] | 4.98 nM | >3658 | 132 nM | > 20000 nM
C[C@@H]1CN(c2nc(NCc3nnc(-c4ccccc4)[nH]3)n3ncc(Br)c3n2)CCN1C.O=CO [Example 130, 8-bromo-2-[(3R)-3,4-dimethylpiperazin-1-yl]-N-[(5-phenyl-4H-1,2,4-triazol-3-yl)methyl]pyrazolo[1,5-a][1,3,5]triazin-4-amine formate] | 3.31 nM | 2547 | 35.6 nM | 4860 nM
CN1CCN(c2nc(NCc3nc4ccccc4[nH]3)n3ncc(Br)c3n2)CC1=O [Example 131, 4-(4-{[(1H-benzimidazol-2-yl)methyl]amino}-8-bromopyrazolo[1,5-a][1,3,5]triazin-2-yl)-1-methylpiperazin-2-one] | 122 nM | 91 | 682 nM | > 20000 nM

These reach a lower DC50 [1]. Values come first.

DC50 [1] | (IC50 CDK12 high ATP) to (Degradation DC50 CDK12) ratio [1] | IC50 [2] | IC50 [3] | Structure (SMILES)
1.37 nM | 7939 | 16 nM | > 20000 nM | Brc1cnn2c(NCc3nc4ccccc4[nH]3)nc(N3CCNCC3)nc12 [Example 128, N-[(1H-benzimidazol-2-yl)methyl]-8-bromo-2-(piperazin-1-yl)pyrazolo[1,5-a][1,3,5]triazin-4-amine]
0.922 nM | >20812 | 43 nM | > 20000 nM | C[C@H]1CN(c2nc(NCc3nc4ccccc4[nH]3)n3ncc(Br)c3n2)CCN1C [Example 132, N-[(1H-benzimidazol-2-yl)methyl]-8-bromo-2-[(3S)-3,4-dimethylpiperazin-1-yl]pyrazolo[1,5-a][1,3,5]triazin-4-amine]
0.906 nM | 7539 | 13.1 nM | > 20000 nM | CN1CCN(c2nc(NCc3nc4c(F)cccc4[nH]3)n3ncc(Br)c3n2)CC1 [Example 126, 8-bromo-N-[(4-fluoro-1H-benzimidazol-2-yl)methyl]-2-(4-methylpiperazin-1-yl)pyrazolo[1,5-a][1,3,5]triazin-4-amine]
